Each molecule was assayed against modified SphK1 (Homo sapiens, UniProt Q9NYA1) (assay: SphK1 biochemical kinase assay (384-well flashplate)). Settings: IC50 ranges; 5 nM modified SphK1, 1 μM ATP, 30° C., 120 min; read-out: SphK1 Inhibition IC50.
Chain of modified SphK1 (Q9NYA1 whole entry): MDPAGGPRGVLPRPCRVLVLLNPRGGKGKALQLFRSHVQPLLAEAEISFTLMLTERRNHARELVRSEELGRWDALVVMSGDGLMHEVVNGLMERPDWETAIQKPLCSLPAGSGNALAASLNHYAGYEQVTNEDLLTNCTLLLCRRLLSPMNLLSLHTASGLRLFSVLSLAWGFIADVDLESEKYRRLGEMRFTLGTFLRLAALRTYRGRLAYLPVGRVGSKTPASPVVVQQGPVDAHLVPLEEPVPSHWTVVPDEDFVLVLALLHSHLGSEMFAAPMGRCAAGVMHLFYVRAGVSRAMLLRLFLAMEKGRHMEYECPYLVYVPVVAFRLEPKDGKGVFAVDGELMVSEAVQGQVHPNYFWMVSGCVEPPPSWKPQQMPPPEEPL
Method: The kinase assay is carried out as a 384-well flashplate assay.
5 nM modified SphK1, 800 nM omega-biotinyl-D-erythro-sphingosine and 1 μM ATP (with 0.3 μCi of ^33P-ATP/well) are incubated in a total volume of 50 μl (25 mM HEPES, 5 mM MgCl2, 1 mM dithiothreitol, 0.01% of Brij35, 0.1% of BSA (fatty acid-free), pH 7.4) without or with test substance (5-10 concentrations) at 30° C. for 120 min. The reaction is terminated using 25 μl of 200 mM EDTA solution, filtered off with suction at room temperature after 30 min, and the cavities are washed 3 times with 100 μl of 0.9% NaCl solution. The non-specific proportion of the kinase reaction (blank) is determined using 0.5 mM NaCl. Radioactivity is measured in topcount. IC50 values are calculated using RS1.
`CC1(C)CCC(C)(C)c2cc(-c3csc(C4CCNC4)n3)ccc21` (stereo not drawn) [2-Pyrrolidin-3-yl-4-(5,5,8,8-tetramethyl-5,6,7,8-tetrahydronaphthalen-2-yl)thiazole] gave an IC50 of 100 to 1000 nM. `CC1(C)CCC(C)(C)c2cc(-c3nc(C4CCNCC4)cs3)ccc21` [4-[2-(5,5,8,8-Tetramethyl-5,6,7,8-tetrahydronaphthalen-2-yl)thiazol-4-yl]piperidine] showed an IC50 of 100 to 1000 nM. In the case of `CC(=O)NC1CCN(C2CCN(c3nc(-c4ccc5c(c4)C(C)(C)CCC5(C)C)cs3)CC2)C1` (stereo not drawn), the IC50 is reported as less than 100 nM.

Source: patent US8907098B2, “Inhibitors of sphingosine kinase” (MERCK PATENT GmbH, priority 2009, dated 2014)
